Assay results: US11000033B2, “Ketone or oxime compound, and herbicide” (NISSAN CHEMICAL CORPORATION, priority 2014, dated 2021)

What was measured:
Assay type in all cases: in vivo
[1] = test system: rice; assay: Test Example 4: effect on crop by soil treatment (symbol b); conditions: 320 g/ha
Procedure, shortened: (§1)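 Soil-treatment setup: crop and weed seeds were spot-sown into sterilized diluvial soil, then buried beneath approximately 1.5 cm of it, and the boxes were housed in a 25–30° C. greenhouse.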

[2] = test system: Alopecurus myosuroides; assay: Test Example 4: herbicidal effect by soil treatment (symbol J); conditions: 320 g/ha
Procedure, shortened: (§2)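 Seeds were sown in sterilized diluvial soil, covered with about 1.5 cm of soil, and the soil surface was sprayed with a water-diluted emulsion of the compound at a predetermined rate. Plants grew in a greenhouse at 25° C. to 30° C.; effects were scored visually 3 weeks after application.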

[3] = test system: corn; assay: Test Example 4: effect on crop by soil treatment (symbol c); conditions: 320 g/ha
Procedure, shortened: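 Plants are raised in a greenhouse (25° C. to 30° C.) from spot-sown seed, which sits under about 1.5 cm of sterilized diluvial soil in a box shared with weed species.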

[4] = test system: Veronica persica; assay: Test Example 4: herbicidal effect by soil treatment (symbol R); conditions: 320 g/ha
Procedure, shortened: as §2

[5] = test system: Avena fatua; assay: Test Example 5: herbicidal effect by foliage application, plastic box (symbol I); conditions: 320 g/ha, 3 weeks after application
Procedure, shortened: (§3)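 Herbicide, formulated as an emulsion and diluted in water, is sprayed onto the aerial parts of 14-day seedlings. These were grown at 25° C. to 30° C. in sterilized diluvial soil; effects are graded after 3 weeks.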

[6] = test system: Stellaria media; assay: Test Example 4: herbicidal effect by soil treatment (symbol P); conditions: 320 g/ha
Procedure, shortened: as §2

[7] = test system: Galium spurium; assay: Test Example 5: herbicidal effect by foliage application, plastic box (symbol Q); conditions: 320 g/ha, 3 weeks after application
Procedure, shortened: as §3

[8] = test system: beet; assay: Test Example 4: effect on crop by soil treatment (symbol f); conditions: 320 g/ha
Procedure, shortened: as §1

[9] = test system: Veronica persica; assay: Test Example 5: herbicidal effect by foliage application, plastic box (symbol R); conditions: 320 g/ha, 3 weeks after application
Procedure, shortened: as §3

[10] = test system: Setaria viridis; assay: Test Example 5: herbicidal effect by foliage application, plastic box (symbol G); conditions: 320 g/ha, 3 weeks after application
Procedure, shortened: as §3

[11] = test system: rice plant; assay: Test Example 5: effect on crop by foliage application, plastic box (symbol b); conditions: 320 g/ha, 3 weeks after application
Procedure, shortened: (§4)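 Greenhouse culture at 25° C. to 30° C. followed spot-like sowing into sterilized diluvial soil, with seed covered by roughly 1.5 cm of soil.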

[12] = test system: Digitaria ciliaris; assay: Test Example 5: herbicidal effect by foliage application, plastic box (symbol F); conditions: 320 g/ha, 3 weeks after application
Procedure, shortened: as §3

[13] = test system: Stellaria media; assay: Test Example 5: herbicidal effect by foliage application, plastic box (symbol P); conditions: 320 g/ha, 3 weeks after application
Procedure, shortened: as §3

[14] = test system: beet; assay: Test Example 5: effect on crop by foliage application, plastic box (symbol f); conditions: 320 g/ha, 3 weeks after application
Procedure, shortened: as §4

[15] = test system: rapeseed; assay: Test Example 4: effect on crop by soil treatment (symbol g); conditions: 320 g/ha
Procedure, shortened: as §1

[16] = test system: Lolium multiflorum Lam.; assay: Test Example 4: herbicidal effect by soil treatment (symbol K); conditions: 320 g/ha
Procedure, shortened: as §2

[17] = test system: wheat; assay: Test Example 5: effect on crop by foliage application, plastic box (symbol e); conditions: 320 g/ha, 3 weeks after application
Procedure, shortened: as §4

[18] = test system: Galium spurium; assay: Test Example 4: herbicidal effect by soil treatment (symbol Q); conditions: 320 g/ha
Procedure, shortened: as §2

[19] = test system: soybean; assay: Test Example 4: effect on crop by soil treatment (symbol d); conditions: 320 g/ha
Procedure, shortened: as §1

[20] = test system: Chenopodium album; assay: Test Example 5: herbicidal effect by foliage application, plastic box (symbol O); conditions: 320 g/ha, 3 weeks after application
Procedure, shortened: as §3

[21] = test system: Apera spica-venti; assay: Test Example 5: herbicidal effect by foliage application, plastic box (symbol L); conditions: 320 g/ha, 3 weeks after application
Procedure, shortened: as §3

[22] = test system: Digitaria ciliaris; assay: Test Example 4: herbicidal effect by soil treatment (symbol F); conditions: 320 g/ha
Procedure, shortened: as §2

[23] = test system: directly sowed rice plant; assay: Test Example 3: effect on crop by foliage application, Wagner pot (symbol b); conditions: application herbicide amount 320 g/ha
Procedure, shortened: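 Greenhouse culture at 25–30 °C of seeded rice, Cyperus difformis, Leptochloa chinensis and Echinochloa crus-galli var. crus-galli, in alluvial soil held under 0.1–0.5 cm of water in a Wagner pot.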

[24] = test system: Abutilon theophrasti; assay: Test Example 5: herbicidal effect by foliage application, plastic box (symbol M); conditions: 320 g/ha, 3 weeks after application
Procedure, shortened: as §3

[25] = test system: Echinochloa crus-galli var. crus-galli; assay: Test Example 4: herbicidal effect by soil treatment (symbol H); conditions: 320 g/ha
Procedure, shortened: as §2

SMILES | b: directly sowed rice plant, effect grade on crop [1] | J: Alopecurus myosuroides, herbicidal effect grade [2] | c: corn, effect grade on crop [3] | R: Veronica persica, herbicidal effect grade [4] | I: Avena fatua, herbicidal effect (criteria 0-5) [5] | P: Stellaria media, herbicidal effect grade [6] | Q: Galium spurium, herbicidal effect (criteria 0-5) [7] | f: beet, effect grade on crop [8] | R: Veronica persica, herbicidal effect (criteria 0-5) [9] | G: Setaria viridis, herbicidal effect (criteria 0-5) [10] | b: directly sowed rice plant, effect on crop (criteria 0-5) [11] | F: Digitaria ciliaris, herbicidal effect (criteria 0-5) [12] | P: Stellaria media, herbicidal effect (criteria 0-5) [13] | f: beet, effect on crop (criteria 0-5) [14] | g: rapeseed, effect grade on crop [15] | K: Lolium multiflorum Lam., herbicidal effect grade [16] | e: wheat, effect on crop (criteria 0-5) [17] | Q: Galium spurium, herbicidal effect grade [18] | d: soybean, effect grade on crop [19] | O: Chenopodium album, herbicidal effect (criteria 0-5) [20] | other results
CC(CC1CC(O)=C(c2c(C)cc(C)cc2C)C1=O)=NOCc1ccccc1C(F)(F)F (stereo not drawn) [1-116] | 1 (Herbicidal ratio of 5% or higher and lower than 20%) | 4 (Herbicidal ratio of 70% or higher and lower than 90%) | 0 (Herbicidal ratio of 5% or lower (almost no effect)) | 0 (Herbicidal ratio of 5% or lower (almost no effect)) | 4 (Herbicidal ratio of 70% or higher and lower than 90%) | 0 (Herbicidal ratio of 5% or lower (almost no effect)) | 1 (Herbicidal ratio of 5% or higher and lower than 20%) | 0 (Herbicidal ratio of 5% or lower (almost no effect)) | 3 (Herbicidal ratio of 40% or higher and lower than 70%) | 5 (Herbicidal ratio of 90% or more (almost completely withered)) | 4 (Herbicidal ratio of 70% or higher and lower than 90%) | 5 (Herbicidal ratio of 90% or more (almost completely withered)) | 2 (Herbicidal ratio of 20% or higher and lower than 40%) | 0 (Herbicidal ratio of 5% or lower (almost no effect)) | 2 (Herbicidal ratio of 20% or higher and lower than 40%) | 4 (Herbicidal ratio of 70% or higher and lower than 90%) | 3 (Herbicidal ratio of 40% or higher and lower than 70%) | 0 (Herbicidal ratio of 5% or lower (almost no effect)) | 0 (Herbicidal ratio of 5% or lower (almost no effect)) | 3 (Herbicidal ratio of 40% or higher and lower than 70%) | L: Apera spica-venti, herbicidal effect (criteria 0-5) [21]: 5 (Herbicidal ratio of 90% or more (almost completely withered)); F: Digitaria ciliaris, herbicidal effect grade [22]: 1 (Herbicidal ratio of 5% or higher and lower than 20%); effect on crop b (directly sowed rice plant), grade 0-5 [23]: 5 (Herbicidal ratio of 90% or more (almost completely withered)); M: Abutilon theophrasti, herbicidal effect (criteria 0-5) [24]: 1 (Herbicidal ratio of 5% or higher and lower than 20%); H: Echinochloa crus-galli var. crus-galli, herbicidal effect grade [25]: 3 (Herbicidal ratio of 40% or higher and lower than 70%)
CC(CC1CC(O)=C(c2c(C)cc(C)cc2C)C1=O)=NOCc1cccc(C(F)(F)F)c1 (stereo not drawn) [1-117] | 5 (Herbicidal ratio of 90% or more (almost completely withered)) | 4 (Herbicidal ratio of 70% or higher and lower than 90%) | 0 (Herbicidal ratio of 5% or lower (almost no effect)) | 0 (Herbicidal ratio of 5% or lower (almost no effect)) | 5 (Herbicidal ratio of 90% or more (almost completely withered)) | 0 (Herbicidal ratio of 5% or lower (almost no effect)) | 0 (Herbicidal ratio of 5% or lower (almost no effect)) | 0 (Herbicidal ratio of 5% or lower (almost no effect)) | 3 (Herbicidal ratio of 40% or higher and lower than 70%) | 5 (Herbicidal ratio of 90% or more (almost completely withered)) | 5 (Herbicidal ratio of 90% or more (almost completely withered)) | 5 (Herbicidal ratio of 90% or more (almost completely withered)) | 3 (Herbicidal ratio of 40% or higher and lower than 70%) | 0 (Herbicidal ratio of 5% or lower (almost no effect)) | 2 (Herbicidal ratio of 20% or higher and lower than 40%) | 4 (Herbicidal ratio of 70% or higher and lower than 90%) | 5 (Herbicidal ratio of 90% or more (almost completely withered)) | 0 (Herbicidal ratio of 5% or lower (almost no effect)) | 0 (Herbicidal ratio of 5% or lower (almost no effect)) | 0 (Herbicidal ratio of 5% or lower (almost no effect)) | L: Apera spica-venti, herbicidal effect (criteria 0-5) [21]: 5 (Herbicidal ratio of 90% or more (almost completely withered)); F: Digitaria ciliaris, herbicidal effect grade [22]: 4 (Herbicidal ratio of 70% or higher and lower than 90%); effect on crop b (directly sowed rice plant), grade 0-5 [23]: 5 (Herbicidal ratio of 90% or more (almost completely withered)); M: Abutilon theophrasti, herbicidal effect (criteria 0-5) [24]: 1 (Herbicidal ratio of 5% or higher and lower than 20%); H: Echinochloa crus-galli var. crus-galli, herbicidal effect grade [25]: 5 (Herbicidal ratio of 90% or more (almost completely withered))
COC(=O)c1ccc(CON=C(C)CC2CC(O)=C(c3c(C)cc(C)cc3C)C2=O)cc1 (stereo not drawn) [1-118] | 5 (Herbicidal ratio of 90% or more (almost completely withered)) | 3 (Herbicidal ratio of 40% or higher and lower than 70%) | 0 (Herbicidal ratio of 5% or lower (almost no effect)) | 0 (Herbicidal ratio of 5% or lower (almost no effect)) | 3 (Herbicidal ratio of 40% or higher and lower than 70%) | 0 (Herbicidal ratio of 5% or lower (almost no effect)) | 3 (Herbicidal ratio of 40% or higher and lower than 70%) | 0 (Herbicidal ratio of 5% or lower (almost no effect)) | 3 (Herbicidal ratio of 40% or higher and lower than 70%) | 0 (Herbicidal ratio of 5% or lower (almost no effect)) | 4 (Herbicidal ratio of 70% or higher and lower than 90%) | 0 (Herbicidal ratio of 5% or lower (almost no effect)) | 3 (Herbicidal ratio of 40% or higher and lower than 70%) | 0 (Herbicidal ratio of 5% or lower (almost no effect)) | 1 (Herbicidal ratio of 5% or higher and lower than 20%) | 3 (Herbicidal ratio of 40% or higher and lower than 70%) | 0 (Herbicidal ratio of 5% or lower (almost no effect)) | 0 (Herbicidal ratio of 5% or lower (almost no effect)) | 0 (Herbicidal ratio of 5% or lower (almost no effect)) | 3 (Herbicidal ratio of 40% or higher and lower than 70%) | L: Apera spica-venti, herbicidal effect (criteria 0-5) [21]: 3 (Herbicidal ratio of 40% or higher and lower than 70%); F: Digitaria ciliaris, herbicidal effect grade [22]: 3 (Herbicidal ratio of 40% or higher and lower than 70%); effect on crop b (directly sowed rice plant), grade 0-5 [23]: 5 (Herbicidal ratio of 90% or more (almost completely withered)); M: Abutilon theophrasti, herbicidal effect (criteria 0-5) [24]: 0 (Herbicidal ratio of 5% or lower (almost no effect)); H: Echinochloa crus-galli var. crus-galli, herbicidal effect grade [25]: 4 (Herbicidal ratio of 70% or higher and lower than 90%)
